Data on eight compounds can be found in US20220347187A1, “HETEROCYCLIC COMPOUNDS AS KINASE INHIBITORS” (Nuvation Bio Inc., priority 2019, published 2022).

One test deals with T1, CDK4 (Homo sapiens, UniProt P11802).
T1 construct: purchased Invitrogen PR8064 A
Kind of test: In vitro kinase inhibition, luminescence (ADP-Glo) with retinoblastoma as substrate. The format is biochemical. The conditions noted are these: ATP 25 μM, 2H at room temperature. How it is done:
(§1) IC50 values of compounds against CDK4 and CDK6 were determined by luminescence using retinoblastoma as substrate. Kinase assays were performed in kinase buffer (#PV6135, Invitrogen, Life Technologies Grand Island. N.Y.) where total reaction volume was […] in 96-well half area white plates (#3693, Costar). One microliter of 25× test compounds at specific concentrations (e.g., final concentration range: 0.1 nM-200 nM) was mixed with 10 μL of 2.5× kinase (5 nM, CDK4 #PR8064 A and CDK6 #PR8422B, Invitrogen) solution and 14 μL of 4× mixed solution with retinoblastoma (1 μM, #12-439, EMD Millipore. Hayward, Calif.) and ATP (25 μM, #V7038, Promega, Madison, Wis.). The plates were covered and incubated for 2H at room temperature. At the end of incubation, 25 μL of stop solution—ADP Glo reagent (#V7002. Promega) was added. After incubation for 45 min at room temperature, 50 μL of detection reagent (##V7002, Promega) was added. Readings were taken at 15 min and 45 min incubation after detection reagent was added in a Synergy Neo Plate reader (BioTek, Winooski, Vt.) at single excitation of 340 nm and Dual emission at 495 nm and 520 nm respectively. The following equations were used in the CDK4 and CDK6 assay data analysis. Percent inhibition (100-% activity) was fitted to the “four-parameter logistic model” in XLfit for determination of IC50 values.
(§2) Percent conversion of enzyme=100−{(RLUNo Drug−No enzyme*100)/RLUNo drug+Enzyme} Equation 1:
(§3) Percent conversion at each data point=100−{(RLUAverage(Drug+enzyme)*100)/RLUNo drug+Enzyme} Equation 2:
(§4) Percent Inhibition=100*(% Conversioneach data point/% ConversionEnzyme) Equation 3: […]
On the technique in general: ADP-Glo first removes unused ATP, then detects ADP through luciferase.

The next test addresses T2, CDK6 (Homo sapiens, UniProt Q00534).
T2 construct: purchased Invitrogen PR8422B
The test is described as above. The format is biochemical. The conditions noted are these: ATP 25 μM, 2H at room temperature. As to the method:
as §1, §2, §3, §4

The subject of another test is DU4475. Kind of test: Cancer cell proliferation assay as a single agent (cell viability). The conditions noted are these: Homo sapiens, DU-4475; Table 4; Rb negative breast carcinoma; 144H treatment. The format is cell-based. As to the method: (§5) The effects of test compounds were studied in two breast cancer cell lines of different subtype. The cancer cells (Table 3) were harvested during the logarithmic growth period and counted. Cell concentrations were adjusted to the appropriate number with respective medium and 90 μL cell suspensions were added to 96-well plates. After cells were seeded, the plates were shaken gently to distribute cells evenly and incubated at 37° C., 5% CO2 on day 1.
(§6) Cells were treated with test compounds at 7 to 9 concentrations within a desired concentration range (e.g. 1.1 nM-10 μM) on day 2 by series diluting the test compound stock solution (10 mM in DMSO) with culture medium. Treatment duration was 144H (with a medium change at 72H) for both MCF-7 and DU4475 cells. Cell viability was assessed by Cell Titer-Glo® as recommended by Promega (Cat. No.: G7572), or by resazurin assay (Sigma Aldrich, Cat. No.: R7017) post treatment.
(§7) Cell viability data were plotted using GraphPad Prism (GraphPad Software, Inc., San Diego, Calif.). In addition, a nonlinear regression model with a sigmoidal dose response and variable slope within GraphPad Prism was used to calculate the IC50 value of individual test compounds.

The subject of a further test is MCF-7. Described as above. The format is cell-based. The conditions noted are these: Homo sapiens, MCF7; Table 4; Rb positive breast adenocarcinoma; 144H treatment. How it is done:
as §5, §6, §7

The target in another test is T3, CDK1 (cyclin B) (Homo sapiens, UniProt P06493).
T3 construct: purchased Invitrogen Life Technologies (screening service)
Kind of test: Z'-LYTE kinase assay. The format is biochemical. The conditions noted are these: ATP 34 μM, 60 minutes. As to the method: IC50 values of compounds against CDK1 (cyclin B) were determined by Z′-LYTE™. These screening assays were performed at Invitrogen Life Technologies (Grand Island, N.Y.) on a low volume NBS, black 384-well plate (#4514, Corning), 0.1 μL of 100× test compound in 100% DMSO (at specific solutions) was mixed with 2.4 μL of Kinase Buffer (50 mM HEPES pH 7.5, 0.01% BRIJ-35, 10 mM MgCl2, 1 mM EGTA), 5 μL of 2× Kinase (3.5-46.4 ng CDK1/cyclin B)/Peptide (2 μM Ser/Thr 18), and 2.5 μL of 4×ATP solution (34 μM). The plates were shaken for 30 seconds, and incubated for 60 minutes at room temperature. Development Reagent Solution (5 μL of 1:1024 dilution) was added to the plates followed with another 30-second plate shake, and the plates were further incubated at room temperature for one hour. The plates were read on fluorescence plate reader with Dual emission at 445 nm and 520 nm.
(§8) The following equations were used for Z′-LYTE™ Screening Assay Data Analysis. Percent inhibition (100-% activity) was fitted to the “four-parameter logistic model” in XLfit for determination of IC50 values.

A further test concerns the target T4, CDK2 (cyclin A) (Homo sapiens, UniProt P24941).
T4 construct: purchased Invitrogen Life Technologies (screening service)
Kind of test: Z'-LYTE kinase assay. The format is biochemical. The conditions noted are these: ATP 31 μM, 60 minutes. As to the method:
IC50 values of compounds against CDK2 (cyclin A) were determined by Z′-LYTE™. These screening assays were performed at Invitrogen Life Technologies (Grand Island, N.Y.) on a low volume NBS, black 384-well plate (#4514. Corning), 0.1 μL of 100× test compound in 100% DMSO (at specific solutions) was mixed with 2.4 μL of Kinase Buffer (50 mM HEPES pH 7.5, 0.01% BRIJ-35, 10 mM MgCl2, 1 mM EGTA), 5 μL of 2× Kinase (1.22-10.3 ng CDK2/cyclin A)/Peptide (2 μM Ser/Thr 12), and 2.5 μL of 4×ATP solution (31 μM). The plates were shaken for 30 seconds, and incubated for 60 minutes at room temperature. Development Reagent Solution (5 μL of 1:1024 dilution) was added to the plates followed with another 30-second plate shake and the plates were further incubated at room temperature for one hour. The plates were read on fluorescence plate reader with Dual emission at 445 nm and 520 nm.
as §8

A further test relates to MCF-7-PR. Kind of test: Cell viability in palbociclib-resistant cell line. The conditions noted are these: MCF-7-PR vs MCF-7. The format is cell-based. As to the method:
as §6, §7
The effects of test compound in a palbociclib-resistant cell line and a parental, non-resistant cell line were compared. The palbociclib-resistant cell line (“MCF-7-PR”) was derived from the parental, non-resistant cell line (MCF-7 breast adenocarcinoma cells) by culture of cells over a period of three months in increasing concentrations of palbociclib, starting from about 350 nM and ending at about 850 nM, the final concentration at which they were then maintained in culture. […]

The target in the next test is T5, PI3Kδ (Homo sapiens, UniProt O00329).
T5 construct: purchased Reaction Biology Corporation (service assay)
Kind of test: PI3Kδ kinase assay (ADP-Glo, Reaction Biology Corporation). The format is biochemical. As to the method:
IC50 values of compounds against the PI3KS kinase were determined by an assay performed by Reaction Biology Corporation (Malvern, Pa.). Briefly, this assay was conducted in buffer (Tris-HCl 40 mM (pH7.5), Orthovanadate 3 mM, MgCl2 20 mM, DTT 2 mM, CHAPS 0.05%, DMSO 1%). PI3K8 kinase was added to the reaction solution and mixed gently. The test compounds in 100% DMSO (at specific solutions) were mixed with the kinase reaction mixture to achieve the final compounds at pre-defined concentrations (e.g., range—0.5 nM to 100 μM) by Acoustic technology (Echo550; nanoliter range). After incubating for 10 min at room temp, ATP was added into the reaction mixture to initiate the reaction followed by a 30-min incubation at 30° C. After quenching the reaction with ADP-Glo reagent, the plates were incubated for 40 min. The Detection Mixture was added, and the plate was incubated for an additional 30 min. At the end of incubation, luminescence was measured. For data analysis, the luminescence was converted into μM ADP production based on ADP standard curves. The nonlinear regression to obtain the standard curve and IC50 values was performed using GraphPad Prism (GraphPad Software. Inc., San Diego, Calif.).

T2 sequence (Q00534 whole entry): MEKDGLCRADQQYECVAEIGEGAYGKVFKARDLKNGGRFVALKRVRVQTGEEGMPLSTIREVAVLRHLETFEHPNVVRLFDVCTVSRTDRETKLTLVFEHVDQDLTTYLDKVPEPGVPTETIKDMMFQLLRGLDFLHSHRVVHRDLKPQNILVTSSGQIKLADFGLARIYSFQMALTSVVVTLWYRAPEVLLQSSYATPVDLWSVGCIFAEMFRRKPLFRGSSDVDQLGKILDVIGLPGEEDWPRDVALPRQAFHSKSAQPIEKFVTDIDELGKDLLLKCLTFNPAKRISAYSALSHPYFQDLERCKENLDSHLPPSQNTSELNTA
T2 sequence (P24385 whole entry partner): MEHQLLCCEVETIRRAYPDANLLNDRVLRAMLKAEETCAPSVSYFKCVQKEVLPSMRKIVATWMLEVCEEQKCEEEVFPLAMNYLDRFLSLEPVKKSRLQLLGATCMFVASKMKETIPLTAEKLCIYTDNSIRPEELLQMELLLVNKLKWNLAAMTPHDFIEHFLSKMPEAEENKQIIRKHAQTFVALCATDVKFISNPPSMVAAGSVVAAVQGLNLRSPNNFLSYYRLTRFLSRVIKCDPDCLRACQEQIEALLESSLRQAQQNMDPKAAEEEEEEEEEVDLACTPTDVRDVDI
T5 sequence (O00329 whole entry): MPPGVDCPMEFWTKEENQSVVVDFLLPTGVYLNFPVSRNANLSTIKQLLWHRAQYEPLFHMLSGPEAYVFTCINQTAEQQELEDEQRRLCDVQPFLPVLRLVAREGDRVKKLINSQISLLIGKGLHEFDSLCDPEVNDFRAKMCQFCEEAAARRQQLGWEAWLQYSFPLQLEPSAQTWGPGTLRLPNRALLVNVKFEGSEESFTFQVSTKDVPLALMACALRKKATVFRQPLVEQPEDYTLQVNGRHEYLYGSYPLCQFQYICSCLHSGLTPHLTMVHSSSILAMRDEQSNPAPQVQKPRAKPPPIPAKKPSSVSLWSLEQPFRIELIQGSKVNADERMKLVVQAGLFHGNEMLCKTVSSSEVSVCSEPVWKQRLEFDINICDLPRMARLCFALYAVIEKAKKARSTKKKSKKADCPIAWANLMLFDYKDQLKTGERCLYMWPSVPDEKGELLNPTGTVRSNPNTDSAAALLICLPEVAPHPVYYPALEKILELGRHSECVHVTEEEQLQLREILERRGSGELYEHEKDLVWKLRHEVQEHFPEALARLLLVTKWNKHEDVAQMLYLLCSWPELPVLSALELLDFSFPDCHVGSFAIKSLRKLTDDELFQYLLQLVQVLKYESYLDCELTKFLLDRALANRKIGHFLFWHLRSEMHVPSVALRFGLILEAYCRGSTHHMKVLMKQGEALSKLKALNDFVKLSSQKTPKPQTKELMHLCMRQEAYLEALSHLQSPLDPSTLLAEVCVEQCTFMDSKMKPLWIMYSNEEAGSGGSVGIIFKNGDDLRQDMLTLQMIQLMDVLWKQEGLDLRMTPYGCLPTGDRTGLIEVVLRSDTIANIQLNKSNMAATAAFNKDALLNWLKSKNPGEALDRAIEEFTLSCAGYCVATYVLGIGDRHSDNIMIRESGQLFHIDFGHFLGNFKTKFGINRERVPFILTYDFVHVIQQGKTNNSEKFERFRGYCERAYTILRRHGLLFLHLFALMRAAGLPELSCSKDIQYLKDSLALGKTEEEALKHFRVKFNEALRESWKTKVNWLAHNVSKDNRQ
T5 sequence (P27986 whole entry partner): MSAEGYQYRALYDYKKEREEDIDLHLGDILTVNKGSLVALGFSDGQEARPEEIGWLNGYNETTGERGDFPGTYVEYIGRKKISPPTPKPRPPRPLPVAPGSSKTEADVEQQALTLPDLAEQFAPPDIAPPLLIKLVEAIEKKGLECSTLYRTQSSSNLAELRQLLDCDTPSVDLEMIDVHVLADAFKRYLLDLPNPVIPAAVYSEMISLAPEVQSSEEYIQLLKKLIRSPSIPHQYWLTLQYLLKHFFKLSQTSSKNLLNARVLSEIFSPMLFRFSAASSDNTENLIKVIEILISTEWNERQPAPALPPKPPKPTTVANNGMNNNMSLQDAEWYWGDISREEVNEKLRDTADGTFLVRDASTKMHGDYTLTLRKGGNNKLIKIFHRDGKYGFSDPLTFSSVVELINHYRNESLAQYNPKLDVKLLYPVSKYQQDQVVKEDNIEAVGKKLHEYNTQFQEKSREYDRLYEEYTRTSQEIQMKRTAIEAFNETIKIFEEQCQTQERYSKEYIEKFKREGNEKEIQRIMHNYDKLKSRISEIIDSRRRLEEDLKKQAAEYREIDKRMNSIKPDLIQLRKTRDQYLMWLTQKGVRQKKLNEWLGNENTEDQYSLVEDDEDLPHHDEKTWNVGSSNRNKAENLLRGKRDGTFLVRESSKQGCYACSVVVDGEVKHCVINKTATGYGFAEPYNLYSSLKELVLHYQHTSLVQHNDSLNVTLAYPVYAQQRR
T1 sequence (P11802 whole entry): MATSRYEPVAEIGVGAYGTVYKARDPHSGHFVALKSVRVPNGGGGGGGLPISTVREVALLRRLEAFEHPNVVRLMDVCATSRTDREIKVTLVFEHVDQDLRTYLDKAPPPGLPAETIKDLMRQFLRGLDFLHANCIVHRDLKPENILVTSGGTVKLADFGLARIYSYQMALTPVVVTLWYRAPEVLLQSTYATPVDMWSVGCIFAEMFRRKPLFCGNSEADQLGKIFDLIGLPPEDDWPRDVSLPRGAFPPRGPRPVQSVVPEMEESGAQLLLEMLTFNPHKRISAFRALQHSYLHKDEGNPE
T1 sequence (P24385 whole entry partner): as the sequence (P24385 whole entry partner) above
T3 sequence (P06493 whole entry): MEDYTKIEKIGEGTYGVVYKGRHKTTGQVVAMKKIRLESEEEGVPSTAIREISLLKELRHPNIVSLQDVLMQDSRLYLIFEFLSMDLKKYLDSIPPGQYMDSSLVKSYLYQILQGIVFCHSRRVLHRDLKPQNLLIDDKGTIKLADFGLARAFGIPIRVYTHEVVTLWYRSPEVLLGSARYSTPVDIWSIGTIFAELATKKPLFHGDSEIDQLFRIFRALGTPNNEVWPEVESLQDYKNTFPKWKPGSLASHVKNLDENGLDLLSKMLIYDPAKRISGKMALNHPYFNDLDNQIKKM
T3 sequence (P14635 whole entry partner): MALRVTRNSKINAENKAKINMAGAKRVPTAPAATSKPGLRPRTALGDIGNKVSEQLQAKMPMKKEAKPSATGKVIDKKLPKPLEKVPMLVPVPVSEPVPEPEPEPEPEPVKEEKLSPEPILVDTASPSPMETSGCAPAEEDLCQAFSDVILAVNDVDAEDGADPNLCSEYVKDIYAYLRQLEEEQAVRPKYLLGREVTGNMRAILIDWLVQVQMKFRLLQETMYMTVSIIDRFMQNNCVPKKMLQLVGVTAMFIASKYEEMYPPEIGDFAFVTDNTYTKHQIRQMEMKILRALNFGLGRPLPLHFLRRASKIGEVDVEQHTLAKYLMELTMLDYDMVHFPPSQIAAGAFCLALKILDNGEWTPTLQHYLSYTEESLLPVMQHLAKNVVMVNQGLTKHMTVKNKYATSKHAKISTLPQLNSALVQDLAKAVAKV

For the compound `CC(C)N1CCOc2c(F)cc(-c3nc(Nc4cccc(N5CCCNCC5)c4)ncc3F)cc21` [Compound 1, N-(3-(1,4-diazepan-1-yl)phenyl)-5-fluoro-4-(8-fluoro-4-isopropyl-3,4-dihydro-2H-benzo[b][1,4]oxazin-6-yl)pyrimidin-2-amine], the half-inhibitory concentration (IC50) at CDK4 is 40 nM; on CDK6 it was 53 nM; in the test on DU4475, 285 nM; with MCF-7 it was 252 nM.

Regarding `CC(C)N1CCOc2c(F)cc(-c3nc(Nc4ccc(N5CCN(C)C(=O)C5)cn4)ncc3F)cc21` [Compound 86, 4-(6-((5-fluoro-4-(8-fluoro-4-isopropyl-3,4-dihydro-2H-benzo[b][1,4]oxazin-6-yl)pyrimidin-2-yl)amino)pyridin-3-yl)-1-methylpiperazin-2-one], the IC50 at CDK4 was found to be 1 nM; at CDK6 it was 3 nM; on CDK1 (cyclin B), 1480 nM; against CDK2 (cyclin A), 278 nM; in the test on DU4475, 1140 nM; in the test with MCF-7, 160 nM.

Take `CC(=O)c1c(C)c2cnc(Nc3ccc(N4CCNCC4)cn3)nc2n(C2CCCC2)c1=O` [palbociclib, reference compound]: the “resistance to palbociclib compared to parental MCF-7 cells, as increase in cell viability IC50” value with MCF-7-PR is reported as “at least 5 fold”.

Take `CCN1CCC(COc2ccc(Nc3cc(-c4cc(F)c5c(c4)N(C(C)C)CCO5)c(F)cn3)nc2)CC1` [Compound 4, N-(5-((1-ethylpiperidin-4-yl)methoxy)pyridin-2-yl)-5-fluoro-4-(8-fluoro-4-isopropyl-3,4-dihydro-2H-benzo[b][1,4]oxazin-6-yl)pyridin-2-amine]: the half-inhibitory concentration (IC50) on CDK4 is 7 nM; on CDK6 it was 12 nM; on CDK1 (cyclin B), 200 nM; at CDK2 (cyclin A), 75 nM; on PI3Kδ, greater than 30200 nM; in the test with DU4475 it was 275 nM. Besides, the half-inhibitory concentration (IC50) with MCF-7 turned out to be 215 nM.

For `CCN1CCC(COc2ccc(Nc3ncc(F)c(-c4cc(F)c5c(c4)N(C(C)C)CCO5)n3)nc2)CC1` [Compound 3, N-(5-((1-ethylpiperidin-4-yl)methoxy)pyridin-2-yl)-5-fluoro-4-(8-fluoro-4-isopropyl-3,4-dihydro-2H-benzo[b][1,4]oxazin-6-yl)pyrimidin-2-amine], the IC50 at CDK4 was 5 nM; at CDK6 it was 6.5 nM; against CDK1 (cyclin B) it was 1490 nM; against CDK2 (cyclin A), 207 nM; at PI3Kδ it was greater than 50000 nM; with DU4475 it was 655 nM. In addition, half-maximal inhibition with MCF-7 (IC50) was put at 60 nM.

For the compound `CC(C)N1CCOc2c(F)cc(-c3nc(Nc4ccc(N5CCNC(=O)C5)cn4)ncc3F)cc21` [Compound 85, 4-(6-((5-fluoro-4-(8-fluoro-4-isopropyl-3,4-dihydro-2H-benzo[b][1,4]oxazin-6-yl)pyrimidin-2-yl)amino)pyridin-3-yl)piperazin-2-one], the IC50 on CDK4 stood at 10 nM; at CDK6, 26 nM; at CDK1 (cyclin B) it was 4550 nM; at CDK2 (cyclin A) it was 2470 nM; in the test on DU4475, 3610 nM; in the test on MCF-7 it was 392 nM.

Turning to `CC(C)N1CCOc2c(F)cc(-c3nc(NC4CCN(S(C)(=O)=O)CC4)ncc3F)cc21` [Compound 5, 5-fluoro-4-(8-fluoro-4-isopropyl-3,4-dihydro-2H-benzo[b][1,4]oxazin-6-yl)-N-(1-(methylsulfonyl)piperidin-4-yl)pyrimidin-2-amine], the IC50 on CDK4 is 2 nM; on CDK6, 9 nM; at CDK1 (cyclin B), less than 1 nM; against CDK2 (cyclin A) it was less than 1 nM; against PI3Kδ, greater than 36600 nM; with DU4475 it was 230 nM. In the test on MCF-7, this compound had an IC50 of 525 nM.

Take `CC(C)N1CCOc2c(F)cc(-c3nc(Nc4cc(N5CCCNCC5)ccn4)ncc3F)cc21` [Compound 2, N-(4-(1,4-diazepan-1-yl)pyridin-2-yl)-5-fluoro-4-(8-fluoro-4-isopropyl-3,4-dihydro-2H-benzo[b][1,4]oxazin-6-yl)pyrimidin-2-amine]: the 50% inhibitory concentration (IC50) was greater than 200 nM on CDK4; greater than 200 nM at CDK6; 2800 nM at CDK1 (cyclin B); 1230 nM against CDK2 (cyclin A); greater than 50000 nM on PI3Kδ; 1640 nM in the test on DU4475. The same compound had a concentration for half-maximal inhibition (IC50) in the test on MCF-7 of 823 nM.

The term IC50 denotes the midpoint of a concentration-inhibition curve.
